Reference: patent publication US5814610A, “Osteogenic growth oligopeptides and pharmaceutical compositions containing them” (Yissum Research Development Company of the Hebrew …, priority 1993, dated 1998)
No end group written: not given here.

Key:
[1] = Kharchenko et al.; cited from earlier work
NIH 3T3 fibroblasts = assay: Proliferative activity: fibroblastic NIH 3T3 cell number in vitro; type: cell-based; settings: NIH 3T3 cells
[2] = test system: osteoblastic MC3T3E1 cells; assay: Proliferative activity: osteoblastic MC3T3E1 cell number in vitro; type: cell-based; settings: for Proliferative effect on cell number (magnitude, compared with positive sOGP control): MC3T3E1 cells

Tyr--Gly--Phe--Gly--Gly (YGFGG; printed: Tyr--Gly--Phe--Gly--Gly) [OGP(10-14)]
Analgesic and opioid activity [1]: analgesic and opiod activity

Gly--Gly [OGP(13-14)]
Proliferative effect on cell number (magnitude, compared with positive sOGP control) (NIH 3T3 fibroblasts): did not affect | Proliferative activity, Percent Activity of Full Length Peptide [OGP(1-14)], Mean (NIH 3T3 fibroblasts; mean of experiments): 0% | Proliferative effect on cell number (magnitude, compared with positive sOGP control) [2]: did not affect | Proliferative activity, Percent Activity of Full Length Peptide [OGP(1-14)], Mean ([2]; MC3T3 E1 cells, mean of experiments): 0%

Ac-MYGFGG [Ac-Met^0 [OGP(10-14)], Ac--Met--Tyr--Gly--Phe--Gly--Gly]
Proliferative effect on cell number (magnitude, compared with positive sOGP control) (NIH 3T3 fibroblasts): closely similar to that of positive sOGP controls | Peptide concentration of peak proliferative activity ([2]; MC3T3E1 cell number): 10^-13 M | Proliferative effect on cell number (magnitude, compared with positive sOGP control) [2]: closely similar to that of positive sOGP controls
